Results as given in patent publication US20100105729A1, “ARYL-SUBSTITUTED HETEROCYCLIC PDE4 INHIBITORS AS ANTI-INFLAMMATORY AGENTS” (KALYPSYS, INC., priority 2006, published 2010).

biological target: T1, PDE4B (Homo sapiens, UniProt Q07343); assay: PDE4 IMAP Assay; format: biochemical; settings: catalytic domain of PDE4B, fluorescence polarization
T1 construct: hexa-histidine (His6) (N); made in house
Excerpt: Compounds may be screened for functional potency in in vitro biochemical assays for their ability to inhibit the activity of phosphodiesterase (PDE) enzymes. A commercial PDE assay, Molecular Device's PDE IMAP assay, was modified and utilized to measure the inhibitory activity of compounds on PDE isoforms. The IMAP technology is based on the high affinity binding of phosphate by immobilized metal (MIII) coordination complexes on nanoparticles. This IMAP “binding reagent” complexes with phosphate groups on the nucleotide monophosphates generated in the reaction. Such binding causes a change in the rate of the molecular motion of the nucleotide, and results in an increase in the fluorescence polarization value observed for the fluorescent label attached to the substrate. PDE inhibitors prevent the generation of nucleotide monophosphates and the subsequent increase in polarization value observed for the fluorescent label attached to the substrate. The catalytic domain of PDE4B was fused to an amino-terminus hex-histadine affinity tag and purified. PDE4B enzyme was incubated with compounds for 10 minutes. Fluorescently labeled cyclic AMP substrates were then added to the PDE enzyme mix and incubated for 2 hours at room temperature. IMAP binding reagent was then added to the enzyme mix, incubated for 10-30 minutes and fluorescent polarization of the fluorescently labeled substrate was read either with the Perkin Elmer Viewlux or Molecular Devices Acquest or Analyst. Roflumilast and Rolipram are the positive controls used in the assay.

T1 sequence (Q07343 330-659 limits assumed, species assumed): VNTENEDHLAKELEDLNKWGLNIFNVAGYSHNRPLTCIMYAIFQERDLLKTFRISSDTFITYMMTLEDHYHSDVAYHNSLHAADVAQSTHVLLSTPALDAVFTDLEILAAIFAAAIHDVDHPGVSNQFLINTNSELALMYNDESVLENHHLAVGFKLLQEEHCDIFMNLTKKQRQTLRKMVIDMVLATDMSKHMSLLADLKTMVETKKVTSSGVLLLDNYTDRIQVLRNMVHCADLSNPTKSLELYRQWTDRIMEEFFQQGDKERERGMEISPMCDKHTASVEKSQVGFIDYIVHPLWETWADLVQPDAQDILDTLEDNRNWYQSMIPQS

SMILES | inhibition at 10 µM
COc1ccc(C2=NN(C(=O)CCC(=O)O)C(c3ccc(F)cc3)C2)cc1OC (stereo not drawn) [Example 72, 4-(3-(3,4-dimethoxyphenyl)-5-(4-fluorophenyl)-4,5-dihydro-1H-pyrazol-1-yl)-4-oxobutanoic acid] | < 50%
COc1ccc(C2=NN(C(=O)c3cc(OC)c(OC)c(OC)c3)C(c3ccc(OC)c(OC)c3)C2)cc1OC (stereo not drawn) [Example 78, (3,5-bis(3,4-dimethoxyphenyl)-4,5-dihydro-1H-pyrazol-1-yl)(3,4,5-trimethoxyphenyl)methanone] | < 50%
COc1ccc(C2CC(c3ccc(OC)c(OC)c3)=NN2C(C)=O)cc1 (stereo not drawn) [Example 103, 1-(3-(3,4-dimethoxyphenyl)-5-(4-methoxyphenyl)-4,5-dihydro-1H-pyrazol-1-yl)ethanone] | < 50%
COc1ccc(C2=NN(C(=O)c3cc(OC)c(OC)c(OC)c3)C(c3ccccc3OC)C2)cc1OC (stereo not drawn) [Example 80, (3-(3,4-dimethoxyphenyl)-5-(2-methoxyphenyl)-4,5-dihydro-1H-pyrazol-1-yl)(3,4,5-trimethoxyphenyl)methanone] | < 50%
COc1ccc(C2=NN(C(=O)CCCC(=O)O)C(c3cccc(OC)c3OC)C2)cc1OC (stereo not drawn) [Example 94, 5-(5-(2,3-dimethoxyphenyl)-3-(3,4-dimethoxyphenyl)-4,5-dihydro-1H-pyrazol-1-yl)-5-oxopentanoic acid] | < 50%
COc1ccc(C2=NN(S(=O)(=O)c3ccc(C)cc3)C(c3cccc([N+](=O)[O-])c3)C2)cc1OC (stereo not drawn) [Example 52, 3-(3,4-dimethoxyphenyl)-5-(3-nitrophenyl)-1-tosyl-4,5-dihydro-1H-pyrazole] | < 50%
CCC(=O)N1N=C(c2ccc(OC)c(OC)c2)CC1c1ccc(CC)cc1 (stereo not drawn) [Example 20, 1-(3-(3,4-dimethoxyphenyl)-5-(4-ethylphenyl)-4,5-dihydro-1H-pyrazol-1-yl)propan-1-one] | < 50%
COc1ccc(C2=NN(C(=O)c3cc(OC)c(OC)c(OC)c3)C(c3ccccc3F)C2)cc1OC (stereo not drawn) [Example 79, (3-(3,4-dimethoxyphenyl)-5-(2-fluorophenyl)-4,5-dihydro-1H-pyrazol-1-yl)(3,4,5-trimethoxyphenyl)methanone] | ≥ 50%
COc1ccc(C2=NN(C(=O)c3ccc(Br)o3)C(c3ccc(Cl)cc3)C2)cc1OC (stereo not drawn) [Example 47, (5-bromofuran-2-yl)(5-(4-chlorophenyl)-3-(3,4-dimethoxyphenyl)-4,5-dihydro-1H-pyrazol-1-yl)methanone] | ≥ 50%
COc1ccc(C2=NN(C(=O)c3ccc(Br)o3)C(c3ccc(C)cc3)C2)cc1OC (stereo not drawn) [Example 48, (5-bromofuran-2-yl)(3-(3,4-dimethoxyphenyl)-5-p-tolyl-4,5-dihydro-1H-pyrazol-1-yl)methanone] | ≥ 50%
COc1ccc(C2=NN(C(=O)CCCC(=O)O)C(c3cccs3)C2)cc1OC (stereo not drawn) [Example 1, 5-(3-(3,4-dimethoxyphenyl)-5-(thiophen-2-yl)-4,5-dihydro-1H-pyrazol-1-yl)-5-oxopentanoic acid] | < 50%
COc1ccc(C2=NN(C(C)=O)C(c3cn(-c4ccccc4)nc3-c3ccccc3)C2)cc1OC (stereo not drawn) [Example 73, 1-(3-(3,4-dimethoxyphenyl)-5-(1,3-diphenyl-1H-pyrazol-4-yl)-4,5-dihydro-1H-pyrazol-1-yl)ethanone] | < 50%
COc1ccc2cc(C3CC(c4ccc(OC)c(OC)c4)=NN3C(=O)c3ccccc3Cl)c(Cl)nc2c1 (stereo not drawn) [Example 16, (5-(2-chloro-7-methoxyquinolin-3-yl)-3-(3,4-dimethoxyphenyl)-4,5-dihydro-1H-pyrazol-1-yl)(2-chlorophenyl)methanone] | < 50%
COc1ccc(C2=NN(C(C)=O)C(c3cccc(OC)c3OC)C2)cc1OC (stereo not drawn) [Example 101, 1-(5-(2,3-dimethoxyphenyl)-3-(3,4-dimethoxyphenyl)-4,5-dihydro-1H-pyrazol-1-yl)ethanone] | < 50%
COc1ccc(OC)c(C2CC(c3ccc(OC)c(OC)c3)=NN2C(=O)CCCC(=O)O)c1 (stereo not drawn) [Example 64, 5-(5-(2,5-dimethoxyphenyl)-3-(3,4-dimethoxyphenyl)-4,5-dihydro-1H-pyrazol-1-yl)-5-oxopentanoic acid] | < 50%
COc1ccc(C2=NN(C(=O)c3ccccc3)C(c3ccc(N(C)C)cc3)C2)cc1OC (stereo not drawn) [Example 37, (3-(3,4-dimethoxyphenyl)-5-(4-(dimethylamino)phenyl)-4,5-dihydro-1H-pyrazol-1-yl)(phenyl)methanone] | < 50%
COc1ccc2cc(C3CC(c4ccc(OC)c(OC)c4)=NN3C(C)=O)c(Cl)nc2c1 (stereo not drawn) [Example 23, 1-(5-(2-chloro-7-methoxyquinolin-3-yl)-3-(3,4-dimethoxyphenyl)-4,5-dihydro-1H-pyrazol-1-yl)ethanone] | < 50%

SMILES | inhibition at 10 µM
COc1ccc(C2=NN(C(=O)c3ccc(Br)o3)C(c3cccc(OC)c3OC)C2)cc1OC (stereo not drawn) [Example 84, (5-bromofuran-2-yl)(5-(2,3-dimethoxyphenyl)-3-(3,4-dimethoxyphenyl)-4,5-dihydro-1H-pyrazol-1-yl)methanone] | < 50%
COc1ccc(C2=NN(S(=O)(=O)c3ccccc3)C(c3ccc(F)cc3)C2)cc1OC (stereo not drawn) [Example 54, 3-(3,4-dimethoxyphenyl)-5-(4-fluorophenyl)-1-(phenylsulfonyl)-4,5-dihydro-1H-pyrazole] | < 50%
COc1ccc(C2=NN(S(=O)(=O)c3ccccc3)C(c3ccc(OC)c(OC)c3)C2)cc1OC (stereo not drawn) [Example 86, 3,5-bis(3,4-dimethoxyphenyl)-1-(phenylsulfonyl)-4,5-dihydro-1H-pyrazole] | ≥ 50%
COc1ccc(C2CC(c3ccc(OC)c(OC)c3)=NN2C(=O)c2ccccc2Cl)cc1 (stereo not drawn) [Example 33, (2-chlorophenyl)(3-(3,4-dimethoxyphenyl)-5-(4-methoxyphenyl)-4,5-dihydro-1H-pyrazol-1-yl)methanone] | ≥ 50%
COc1ccc(C2=NN(S(=O)(=O)c3ccc(C)cc3)C(c3ccc(OC)c(OC)c3)C2)cc1OC (stereo not drawn) [Example 87, 3,5-bis(3,4-dimethoxyphenyl)-1-tosyl-4,5-dihydro-1H-pyrazole] | < 50%
COc1ccc2cc(C3CC(c4ccc(OC)c(OC)c4)=NN3C(=O)CCCC(=O)O)c(Cl)nc2c1 (stereo not drawn) [Example 17, 5-(5-(2-chloro-7-methoxyquinolin-3-yl)-3-(3,4-dimethoxyphenyl)-4,5-dihydro-1H-pyrazol-1-yl)-5-oxopentanoic acid] | < 50%
COc1ccc(C2=NN(S(=O)(=O)c3ccc(C)cc3)C(c3cccc(OC)c3OC)C2)cc1OC (stereo not drawn) [Example 91, 5-(2,3-dimethoxyphenyl)-3-(3,4-dimethoxyphenyl)-1-tosyl-4,5-dihydro-1H-pyrazole] | < 50%
COc1ccc(C2=NN(C(=O)CCCC(=O)O)C(c3ccc(Cl)cc3)C2)cc1OC (stereo not drawn) [Example 95, 5-(5-(4-chlorophenyl)-3-(3,4-dimethoxyphenyl)-4,5-dihydro-1H-pyrazol-1-yl)-5-oxopentanoic acid] | < 50%
COc1ccc(C2=NN(C(=O)CCCC(=O)O)C(c3ccccc3Cl)C2)cc1OC (stereo not drawn) [Example 67, 5-(5-(2-chlorophenyl)-3-(3,4-dimethoxyphenyl)-4,5-dihydro-1H-pyrazol-1-yl)-5-oxopentanoic acid] | < 50%
COc1ccc(C2=NN(C(=O)c3cccs3)C(c3ccccc3Cl)C2)cc1OC (stereo not drawn) [Example 39, (5-(2-chlorophenyl)-3-(3,4-dimethoxyphenyl)-4,5-dihydro-1H-pyrazol-1-yl)(thiophen-2-yl)methanone] | < 50%
COc1ccc(C2=NN(C(=O)c3ccccc3Cl)C(c3ccccc3Cl)C2)cc1OC (stereo not drawn) [Example 35, (2-chlorophenyl)(5-(2-chlorophenyl)-3-(3,4-dimethoxyphenyl)-4,5-dihydro-1H-pyrazol-1-yl)methanone] | < 50%
COc1ccc(OC)c(C2CC(c3ccc(OC)c(OC)c3)=NN2S(=O)(=O)c2ccccc2)c1 (stereo not drawn) [Example 88, 5-(2,5-dimethoxyphenyl)-3-(3,4-dimethoxyphenyl)-1-(phenylsulfonyl)-4,5-dihydro-1H-pyrazole] | < 50%
COc1ccc(C2=NN(C(C)=O)C(c3cc4cccc(C)c4nc3Cl)C2)cc1OC (stereo not drawn) [Example 76, 1-(5-(2-chloro-8-methylquinolin-3-yl)-3-(3,4-dimethoxyphenyl)-4,5-dihydro-1H-pyrazol-1-yl)ethanone] | < 50%
COc1ccc(C2=NN(S(=O)(=O)c3ccc(C)cc3)C(c3ccccc3)C2)cc1OC (stereo not drawn) [Example 62, 3-(3,4-dimethoxyphenyl)-5-phenyl-1-tosyl-4,5-dihydro-1H-pyrazole] | < 50%
COc1ccc(C2=NN(C(=O)c3ccccc3Cl)C(c3cn(-c4ccccc4)nc3-c3ccccc3)C2)cc1OC (stereo not drawn) [Example 26, (2-chlorophenyl)(3-(3,4-dimethoxyphenyl)-5-(1,3-diphenyl-1H-pyrazol-4-yl)-4,5-dihydro-1H-pyrazol-1-yl)methanone] | < 50%
COc1ccc2cc(C3CC(c4ccc(OC)c(OC)c4)=NN3C(=O)c3ccco3)c(Cl)nc2c1 (stereo not drawn) [Example 10, (5-(2-chloro-7-methoxyquinolin-3-yl)-3-(3,4-dimethoxyphenyl)-4,5-dihydro-1H-pyrazol-1-yl)(furan-2-yl)methanone] | < 50%
